We go through eight molecules from patent US5591741A, “Fungicidal spiroheterocyclic derivatives” (American Cyanamid Company, priority 1993, dated 1997).

One experiment relates to Rhizoctonia solani. Briefly: Activity against Rhizoctonia in-vitro (RSI). The note with it: 10 ppm, 10 days, 20° C., mycelial growth. The experiment is classed as cell-based. The method, boiled down: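 R. solani mycelial fragments (5×10^4/ml) in half-strength Potato Dextrose Broth with compound added from acetone to 10 ppm final. Mycelial growth assessed after 10 days at 20° C, rated against untreated or diluent control.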

In experiment [1] the test system is Pseudocercosporella herpotrichoides. Kind of experiment: Activity against wheat eyespot in-vitro (PHI). Format: cell-based. The note with it: 10 ppm, 10 days, 20° C., mycelial growth. The gist of the method:
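P. herpotrichoides mycelial fragments (5×10^4/ml) grown in half-strength PDB with compound at 10 ppm final, added from acetone. Incubated 10 days at 20 °C; mycelial growth rated against untreated or diluent controls.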

The subject of the next experiment is Phytophthora infestans. The experiment is classed as in vivo. The note with it: tomato, direct protectant foliar spray.
Experiment [2] relates to Erysiphe graminis f.sp. hordei. Kind of experiment: Activity against barley powdery mildew, direct therapeutic (EGT). The experiment is classed as in vivo. To be noted: direct therapeutic foliar spray, 600 ppm, up to 7 days. The gist of the method:
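Barley seedlings (cv. Golden Promise, single-leaf stage) were dusted with mildew conidia one day before a therapeutic foliar spray of 600 ppm compound. Plants were kept at 18 °C and 40% humidity for up to 7 days, and sporulating leaf area was rated against untreated or diluent-sprayed controls.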

The subject of the next experiment is Pyricularia oryzae. Format: in vivo. The note with it: rice seedlings, direct therapeutic foliar spray, 600 ppm, 4-5 days.
The next experiment relates to Plasmopara viticola. Briefly: Antisporulant activity against vine downy mildew (PVA). The experiment is classed as in vivo. To be noted: vine leaves, antisporulant foliar spray, 600 ppm, 750 l/ha. The method, boiled down: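 Cabernet Sauvignon vines (~8 cm) inoculated on lower leaf surfaces with 5×10^4 zoosporangia/ml, held 24 h at 21° C high humidity then 24 h glasshouse. Infected leaves sprayed underside with 600 ppm compound in 1:1 water/acetone, 0.04% Tween 20, 750 l/ha; 96 h glasshouse, 24 h humidity. Sporulating leaf area rated versus control.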

Experiment [3] deals with Erysiphe graminis f.sp. hordei. Briefly: Direct protectant activity against barley powdery mildew (EGP). Format: in vivo. The note with it: direct protectant foliar spray, 8 days. The gist of the method: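 Barley seedlings (cv Golden Promise, single-leaf stage) were foliar-sprayed, held 24 h at 18 °C/40% RH, then dusted with mildew conidia. After 8 days at 18 °C/40% RH, sporulating leaf area was scored as a rating against untreated or diluent-sprayed controls.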

Another experiment deals with Botrytis cinerea. Kind of experiment: Direct protectant activity against broad bean grey mould (BCB). The experiment is classed as in vivo. To be noted: direct protectant foliar spray, 600 ppm, 4 days. The method, boiled down: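 Broad bean plants (cv The Sutton, two leaf pairs) sprayed on upper leaf surfaces at 600 ppm, then inoculated 24 h later with 10^6 conidia/ml. Kept 4 days at 22 °C, high humidity; disease control rated from % leaf area with lesions against untreated or diluent controls.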

The next experiment deals with Alternaria solani. Briefly: Activity against tomato early blight (AS). Format: in vivo. To be noted: Table VI; tomato seedlings, contact prophylactic foliar spray, 4 days. The gist of the method:
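Foliar contact prophylactic spray on tomato seedlings (cv Outdoor Girl, second true leaf expanded) in acetone/water 50:50 with 0.04% Tween 20; 24 h at 20° C, 40% R.H., then inoculation with 10^4 spores/ml A. solani conidia. Kept moist at 21° C; lesion cover rated 4 days post-inoculation against untreated or diluent-sprayed controls.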

The test system of a further experiment is Leptosphaeria nodorum. Kind of experiment: Activity against wheat leafspot (LN). The experiment is classed as in vivo. The note with it: direct therapeutic foliar spray, 600 ppm, 6-8 days. The gist of the method:
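Wheat cv Norman at single-leaf stage spray-inoculated with 1.5×10^6 conidia/ml, held 24 h at high humidity, then sprayed therapeutically with test compound at 600 ppm. Kept 6-8 days at 22° C, 70% humidity; lesion density per leaf rated against untreated or diluent-sprayed controls.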

For another experiment, the system named is Venturia inaequalis. Briefly: Activity against apple scab in-vitro (VII). The experiment is classed as cell-based. To be noted: 10 ppm, 10 days, 20° C., mycelial growth. The method, boiled down: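 Compound in acetone was tested at 10 ppm final in half-strength Potato Dextrose Broth inoculated with V. inaequalis mycelial fragments and spores at 5×10^4 propagules/ml. After 10 days at 20° C, mycelial growth was rated against untreated or diluent controls.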

For the molecule `Cc1ccc(CNC2COC3(CCC(C(C)(C)C)CC3)C2)cc1` (stereo not shown) [Compound 28], the “disease control rating RSI” value in the experiment on Rhizoctonia solani is given as 0 (less than 50% disease control). Also, the “disease control rating PHI” value in experiment [1] was 0 (less than 50% disease control). Also, in the experiment with Phytophthora infestans, the “disease control rating PIP” value is reported as 0 (less than 50% disease control). Besides, in [2], the “disease control rating EGT” value is on record as 2 (greater than 80% disease control). Also, the “disease control rating PO” value in the experiment on Pyricularia oryzae is listed as 0 (less than 50% disease control). In the experiment on Plasmopara viticola, the “disease control rating PVA” value was 0 (less than 50% disease control). Further, the “disease control rating EGP” value in experiment [3] is recorded as 2 (greater than 80% disease control). Also, in the experiment with Botrytis cinerea, the “disease control rating BCB” value is reported as 0 (less than 50% disease control). Further, the “disease control rating AS” value in the experiment with Alternaria solani was 0 (less than 50% disease control). In the experiment with Leptosphaeria nodorum, the “disease control rating LN” value is 0 (less than 50% disease control). The “disease control rating VII” value in the experiment with Venturia inaequalis is recorded as 2 (greater than 80% disease control).
On to `CC(C)(C)C1CCC2(CC1)CC(NCc1ccc(Br)cc1)CO2` (stereo not shown) [Compound 29], for which, in the experiment with Rhizoctonia solani, the “disease control rating RSI” value is recorded as 0 (less than 50% disease control). Moreover, the “disease control rating PHI” value in [1] was 0 (less than 50% disease control). The “disease control rating PIP” value with Phytophthora infestans is 0 (less than 50% disease control). For the same molecule, the “disease control rating EGT” value in [2] was 2 (greater than 80% disease control). Besides, the “disease control rating PO” value in the experiment on Pyricularia oryzae is 0 (less than 50% disease control). In addition, the “disease control rating PVA” value in the experiment on Plasmopara viticola is given as 0 (less than 50% disease control). The “disease control rating EGP” value in experiment [3] is on record as 2 (greater than 80% disease control). Further, the “disease control rating BCB” value in the experiment on Botrytis cinerea was 0 (less than 50% disease control). Moreover, the “disease control rating AS” value in the experiment with Alternaria solani was 0 (less than 50% disease control). Besides, the “disease control rating LN” value in the experiment on Leptosphaeria nodorum is 0 (less than 50% disease control). Further, in the experiment with Venturia inaequalis, the “disease control rating VII” value was 2 (greater than 80% disease control).
For `CC(C)(C)C1CCC2(CC1)CC(NCc1ccc(F)cc1)CO2` (stereo not shown) [Compound 30], in the experiment with Rhizoctonia solani, the “disease control rating RSI” value is given as 0 (less than 50% disease control). In addition, in [1], the “disease control rating PHI” value is 0 (less than 50% disease control). Further, in the experiment with Phytophthora infestans, the “disease control rating PIP” value is on record as 0 (less than 50% disease control). Further, the “disease control rating EGT” value in [2] is 2 (greater than 80% disease control). The “disease control rating PO” value in the experiment on Pyricularia oryzae is 0 (less than 50% disease control). In the experiment on Plasmopara viticola, the “disease control rating PVA” value is listed as 0 (less than 50% disease control). Further, the “disease control rating EGP” value in [3] is 2 (greater than 80% disease control). The “disease control rating BCB” value in the experiment on Botrytis cinerea is 0 (less than 50% disease control). Besides, the “disease control rating AS” value with Alternaria solani is 0 (less than 50% disease control). The “disease control rating LN” value with Leptosphaeria nodorum is on record as 0 (less than 50% disease control). The “disease control rating VII” value with Venturia inaequalis is 2 (greater than 80% disease control).
Take `CC(C)(C)C1CCC2(CC1)CC(NCc1ccccc1)CO2` (stereo not shown) [Compound 31]: the “disease control rating RSI” value in the experiment on Rhizoctonia solani is listed as 0 (less than 50% disease control). Besides, the “disease control rating PHI” value in [1] is reported as 0 (less than 50% disease control). In addition, the “disease control rating PIP” value with Phytophthora infestans was 0 (less than 50% disease control). Further, in experiment [2], the “disease control rating EGT” value is reported as 2 (greater than 80% disease control). Further, the “disease control rating PO” value with Pyricularia oryzae is given as 0 (less than 50% disease control). Moreover, the “disease control rating PVA” value in the experiment with Plasmopara viticola is on record as 2 (greater than 80% disease control). In addition, the “disease control rating EGP” value in experiment [3] was 2 (greater than 80% disease control). Besides, in the experiment on Botrytis cinerea, the “disease control rating BCB” value is 0 (less than 50% disease control). The “disease control rating AS” value in the experiment on Alternaria solani is 1 (about 50-80% disease control). Further, the “disease control rating LN” value with Leptosphaeria nodorum is given as 0 (less than 50% disease control). Besides, the “disease control rating VII” value in the experiment on Venturia inaequalis was 1 (about 50-80% disease control).
For `CCCCCCNC1COC2(CCCCC2)C1` (stereo not shown) [Compound 32], the “disease control rating RSI” value in the experiment with Rhizoctonia solani is 0 (less than 50% disease control). In addition, in experiment [1], the “disease control rating PHI” value is given as 0 (less than 50% disease control). Also, in the experiment on Phytophthora infestans, the “disease control rating PIP” value is 0 (less than 50% disease control). Moreover, the “disease control rating EGT” value in experiment [2] was 2 (greater than 80% disease control). For the same molecule, the “disease control rating PO” value with Pyricularia oryzae is on record as 0 (less than 50% disease control). Further, the “disease control rating PVA” value in the experiment on Plasmopara viticola is on record as 0 (less than 50% disease control). Also, the “disease control rating EGP” value in experiment [3] is 2 (greater than 80% disease control). The “disease control rating BCB” value in the experiment on Botrytis cinerea is 0 (less than 50% disease control). In addition, in the experiment on Alternaria solani, the “disease control rating AS” value is recorded as 0 (less than 50% disease control). For the same molecule, the “disease control rating LN” value in the experiment with Leptosphaeria nodorum was 0 (less than 50% disease control). Further, the “disease control rating VII” value with Venturia inaequalis is recorded as 0 (less than 50% disease control).
Regarding `c1ccc(CNC2COC3(CCCCC3)C2)cc1` (stereo not shown) [Compound 33], in the experiment on Rhizoctonia solani, the “disease control rating RSI” value is reported as 0 (less than 50% disease control). Further, in [1], the “disease control rating PHI” value is listed as 0 (less than 50% disease control). Besides, the “disease control rating PIP” value in the experiment with Phytophthora infestans is reported as 0 (less than 50% disease control). Also, in [2], the “disease control rating EGT” value is listed as 1 (about 50-80% disease control). The “disease control rating PO” value with Pyricularia oryzae is 0 (less than 50% disease control). Moreover, the “disease control rating PVA” value in the experiment on Plasmopara viticola is reported as 0 (less than 50% disease control). Besides, in experiment [3], the “disease control rating EGP” value is on record as 0 (less than 50% disease control). In addition, the “disease control rating BCB” value in the experiment on Botrytis cinerea is 0 (less than 50% disease control). The “disease control rating AS” value in the experiment with Alternaria solani is 0 (less than 50% disease control). The “disease control rating LN” value with Leptosphaeria nodorum was 0 (less than 50% disease control). The “disease control rating VII” value with Venturia inaequalis is recorded as 0 (less than 50% disease control).
For `Clc1ccc(CNC2COC3(CCCCC3)C2)cc1` (stereo not shown) [Compound 34], the “disease control rating RSI” value in the experiment with Rhizoctonia solani was 0 (less than 50% disease control). Moreover, the “disease control rating PHI” value in experiment [1] was 0 (less than 50% disease control). For the same molecule, the “disease control rating PIP” value with Phytophthora infestans is 0 (less than 50% disease control). Also, the “disease control rating EGT” value in experiment [2] is recorded as 2 (greater than 80% disease control). Moreover, the “disease control rating PO” value in the experiment with Pyricularia oryzae is 0 (less than 50% disease control). Moreover, in the experiment on Plasmopara viticola, the “disease control rating PVA” value was 0 (less than 50% disease control). Besides, in experiment [3], the “disease control rating EGP” value is on record as 2 (greater than 80% disease control). Also, the “disease control rating BCB” value with Botrytis cinerea is given as 0 (less than 50% disease control). For the same molecule, in the experiment with Alternaria solani, the “disease control rating AS” value is given as 0 (less than 50% disease control). Besides, the “disease control rating LN” value with Leptosphaeria nodorum is listed as 0 (less than 50% disease control). The “disease control rating VII” value in the experiment with Venturia inaequalis is listed as 0 (less than 50% disease control).
For the molecule `C1CCN(C2COC3(CCCCC3)C2)CC1` (stereo not shown) [Compound 35], the “disease control rating RSI” value with Rhizoctonia solani is given as 0 (less than 50% disease control). The “disease control rating PHI” value in experiment [1] was 0 (less than 50% disease control). Also, the “disease control rating PIP” value with Phytophthora infestans was 0 (less than 50% disease control). In addition, the “disease control rating EGT” value in experiment [2] is 0 (less than 50% disease control). In addition, in the experiment with Pyricularia oryzae, the “disease control rating PO” value is 0 (less than 50% disease control). The “disease control rating PVA” value in the experiment on Plasmopara viticola was 0 (less than 50% disease control). The “disease control rating EGP” value in experiment [3] was 0 (less than 50% disease control). Further, in the experiment on Botrytis cinerea, the “disease control rating BCB” value is reported as 0 (less than 50% disease control). For the same molecule, the “disease control rating AS” value with Alternaria solani is 0 (less than 50% disease control). The “disease control rating LN” value with Leptosphaeria nodorum is recorded as 0 (less than 50% disease control). For the same molecule, in the experiment with Venturia inaequalis, the “disease control rating VII” value is 0 (less than 50% disease control).
